Source: patent US20100298314A1, “NOVEL JNK INHIBITORS” (Schering Corporation, priority 2006, published 2010)
Where “and” joins values, the source holds several entries; their conditions need not be identical. Equal values may be shown once. Read-outs that look alike come from different tables or passages of the source.

Assays:
JNK1 = JNK1 (Homo sapiens, UniProt P45983); assay: JNK1 kinase DELFIA (phosphorylation of biotinylated GST-ATF2); type: biochemical
Procedure: (§1) Before initiation of kinase reactions, compounds were pre-incubated with the enzyme for 10 minutes. Pre-incubation reactions contained 50 mM HEPES pH 7.3, 10 mM MgCl2, 1 mM DTT, 75 mM NaCl, 1 mM EDTA, 1 mM EGTA, 0.01% CHAPS, 2 nM JNK1, 6 ug/mL biotinylated GST-ATF2, 0.1 mg/ml BSA, 5% DMSO and 0-100 μM compound in a total volume of 40 μL. After a 10 minute room temperature pre-incubation, 10 μL of 35 μM ATP was added to start the reaction (final concentration of ATP=7 uM). Reactions were incubated at room temperature for 30 minutes. A small aliquot (10 uL) was taken and quenched by adding into 190 uL of DELFIA Assay buffer containing 100 mM EDTA. The amount of phosphate transferred to biotinylated GST-ATF2 was measured using the Dissociation Enhanced Lanthanide Fluorescence Immuno-assay (DELFIA) from Perkin Elmer according to manufacturers protocol. Briefly, biotinylated GST-ATF2 was captured on streptavidin coated plates for 1 hour, washed twice, then incubated for 1 hour with a 1:1000 dilution of rabbit-anti-phospho-ATF2 antibody and a 1:3500 dilution of Europium-labeled anti-rabbit secondary antibody. Free antibody was removed with six washes, Europium was dissociated from the antibody, and Europium fluorescence was measured using an excitation wavelength of 340 nm and an emission wavelength of 615 nm. JNK2 and JNK3 kinase reactions were carried out similarly, with the exception that the final concentration of ATP was 4 uM and 2 uM, respectively.

JNK2 = JNK2 (Homo sapiens, UniProt P45984); assay: JNK2 kinase DELFIA (phosphorylation of biotinylated GST-ATF2); type: biochemical; conditions: final ATP 4 uM, reported as range for a group
Chain of JNK2 (P45984 whole entry, species assumed): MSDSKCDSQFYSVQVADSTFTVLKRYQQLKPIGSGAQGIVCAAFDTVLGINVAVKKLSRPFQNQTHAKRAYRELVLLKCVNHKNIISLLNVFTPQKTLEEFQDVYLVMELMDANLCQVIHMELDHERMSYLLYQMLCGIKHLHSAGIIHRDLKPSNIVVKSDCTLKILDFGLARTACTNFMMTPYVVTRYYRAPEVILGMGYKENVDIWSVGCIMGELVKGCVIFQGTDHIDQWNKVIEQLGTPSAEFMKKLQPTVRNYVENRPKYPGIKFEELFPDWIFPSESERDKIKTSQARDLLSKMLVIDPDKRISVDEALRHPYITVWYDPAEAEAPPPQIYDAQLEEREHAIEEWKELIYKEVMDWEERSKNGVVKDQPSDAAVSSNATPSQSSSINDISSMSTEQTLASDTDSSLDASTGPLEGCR
Procedure: as §1

[1] = DELFIA, 2 nM JNK1, final ATP 7 uM, 10 min pre-incubation, reported as range for a group

Chain of JNK1 (P45983 whole entry, species assumed): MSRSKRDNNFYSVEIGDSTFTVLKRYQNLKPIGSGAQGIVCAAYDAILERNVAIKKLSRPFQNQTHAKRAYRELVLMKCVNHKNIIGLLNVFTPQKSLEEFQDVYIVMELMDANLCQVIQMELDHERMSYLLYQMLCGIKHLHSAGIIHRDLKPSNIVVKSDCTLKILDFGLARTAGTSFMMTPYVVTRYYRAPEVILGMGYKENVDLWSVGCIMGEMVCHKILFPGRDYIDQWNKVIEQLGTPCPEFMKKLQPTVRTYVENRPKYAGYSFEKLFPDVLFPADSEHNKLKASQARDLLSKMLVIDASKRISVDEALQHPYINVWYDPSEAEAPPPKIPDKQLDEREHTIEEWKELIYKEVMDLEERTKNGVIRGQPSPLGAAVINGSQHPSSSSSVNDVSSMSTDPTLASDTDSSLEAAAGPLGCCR

Row | SMILES | IC50 (JNK1; [1]) | IC50 (JNK1; read-out: JNK 1 IC50) [µM] | IC50 (JNK2) [µM]
1 | CC[C@H](C)[C@@H](CO)NC(=O)c1c(-c2ccsc2)nc2c(C(=O)NCc3ccc4nc(N)sc4c3)cccn12 [Compound 46] | 0.006 to 0.1 µM | – | –
2 | CC(C)[C@@H](CO)NC(=O)c1c(-c2ccsc2)nc2c(C(=O)NCc3ccc4nc(N)sc4c3)cccn12 [Compound 47] | 0.006 to 0.1 µM | – | –
3 | Nc1nc2ccc(CNC(=O)c3cccn4c(C(=O)N[C@H](CO)C5CCCCC5)c(-c5ccsc5)nc34)cc2s1 [Compound 69] | 0.006 to 0.1 µM | – | –
4 | CC(C)C[C@@H](CO)NC(=O)c1c(-c2ccsc2)nc2c(C(=O)NCc3ccc4c(c3)OCO4)cccn12 [Compound 94] | 0.006 to 0.1 µM | – | –
5 | CC(C)c1nc2ccc(CNC(=O)c3cccn4c(C(=O)NCC5(O)CCCCC5)c(-c5ccsc5)nc34)cc2[nH]1 [Compound 117] | 0.006 to 0.1 µM | – | –
6 | Cc1nc2ccc(CNC(=O)c3cccn4c(C(=O)NCC5(O)CCCCC5)c(-c5ccsc5)nc34)cc2[nH]1 [Compound 118] | 0.006 to 0.1 µM | 0.023 | –
7 | CCc1nc2c(C(=O)NCc3ccc4nc(C)sc4c3)cccn2c1C(=O)N[C@H](CO)CC(C)C [Compound 131] | 0.006 to 0.1 µM | – | –
8 | Cc1nc2cc(CNC(=O)c3cccn4c(C(=O)N[C@H](CO)CC(C)C)c(-c5ccsc5)nc34)ccc2n1C [Compound 139] | 0.006 to 0.1 µM and 0.006 to 0.02 µM | – | –
9 | CC(C)C[C@@H](CO)NC(=O)c1c(-c2ccsc2)nc2c(C(=O)NCc3cnc4nc(N)sc4c3)cccn12 [Compound 150] | 0.006 to 0.1 µM | – | –
10 | CNc1nc2ccc(CNC(=O)c3cccn4c(C(=O)N[C@H](CO)CC(C)C)c(-c5ccccn5)nc34)cc2s1 [Compound 156] | 0.006 to 0.02 µM | – | –
11 | CC(C)C[C@@H](CO)NC(=O)c1c(-c2ccsc2)nc2c(C(=O)NCc3ccc(C(F)(F)F)nc3)cccn12 [Compound 209] | 0.006 to 0.1 µM | – | –
12 | CC(C)C[C@@H](CO)NC(=O)c1c(-c2ccsc2)nc2c(C(=O)N[C@H](C)c3ccc(O)cc3)cccn12 [Compound 213] | 0.006 to 0.1 µM | – | –
13 | CC(C)C[C@@H](CO)NC(=O)c1c(-c2ccsc2)nc2c(C(=O)NCc3cnn(-c4cccc(C(F)(F)F)c4)c3)cccn12 [Compound 224] | 0.006 to 0.1 µM | – | –
14 | O=C(NCc1ccc2c(c1)OCO2)c1cccn2c(C(=O)N[C@H](CO)c3ccccc3)c(-c3ccsc3)nc12 [Compound 238] | 0.006 to 0.1 µM | – | –
15 | CSCC[C@@H](CO)NC(=O)c1c(-c2ccsc2)nc2c(C(=O)NCc3ccc(S(C)(=O)=O)cc3)cccn12 [Compound 242] | 0.006 to 0.1 µM | – | –
16 | COc1ccc(-c2cc(CNC(=O)c3cccn4c(C(=O)N[C@H](CO)CC(C)C)c(-c5ccsc5)nc34)no2)cc1 [Compound 274] | 0.006 to 0.1 µM | – | –
17 | CC(C)C[C@@H](CO)NC(=O)c1c(-c2ccsc2)nc2c(C(=O)NCc3ccc4[nH]ncc4c3)cccn12 [Compound 277] | 0.006 to 0.1 µM and 0.006 to 0.02 µM | – | –
18 | Nc1nc2ccc(CNC(=O)c3cccn4c(C(=O)N[C@@H]5c6ccccc6C[C@@H]5O)c(-c5ccsc5)nc34)cc2s1 [Compound 279] | 0.006 to 0.1 µM | – | –
19 | CCCC[C@@H](CO)NC(=O)c1c(-c2ccsc2)nc2c(C(=O)NCc3ccc4nc(N)sc4c3)cccn12 [Compound 280] | 0.006 to 0.1 µM | – | –
20 | Nc1nc2ccc(CNC(=O)c3cccn4c(C(=O)NC5CCCC5CO)c(-c5ccsc5)nc34)cc2s1 (centres unmarked) [Compound 283] | 0.006 to 0.1 µM | – | –
21 | Nc1nc2ccc(CNC(=O)c3cccn4c(C(=O)N[C@@H](CO)CC5CC5)c(-c5ccsc5)nc34)cc2s1 [Compound 285] | 0.006 to 0.1 µM | – | –
22 | CC(C)C[C@@H](CO)NC(=O)c1c(-c2ccsc2)nc2c(C(=O)NCc3ccc(NC4CCCC4)nc3)cccn12 [Compound 292] | 0.006 to 0.1 µM | – | –
23 | CC(C)C[C@@H](CO)NC(=O)c1c(-c2ccsc2)nc2c(C(=O)NCc3ccc(N4CCCCCC4)nc3)cccn12 [Compound 298] | 0.006 to 0.1 µM | – | –
24 | CC(C)C[C@@H](CO)NC(=O)c1c(-c2ccsc2)nc2c(C(=O)NCc3ccc(-c4ccccc4)nc3)cccn12 [Compound 305] | 0.006 to 0.1 µM | – | –
25 | CC(C)C[C@@H](CO)NC(=O)c1c(-c2ccsc2)nc2c(C(=O)NCc3ccc(N4CCCC4=O)nc3)cccn12 [Compound 324] | 0.006 to 0.1 µM | – | –
26 | CC(C)C[C@@H](CO)NC(=O)c1c(-c2ccsc2)nc2c(C(=O)NCc3ccc(C(=O)O)cc3)cccn12 [Compound 326] | 0.006 to 0.1 µM | – | –

Row | SMILES | IC50 (JNK1; [1]) | IC50 (JNK1; read-out: JNK 1 IC50) [µM] | IC50 (JNK2) [µM]
27 | Cc1cc(C(=O)NCc2ccc3nc(N)sc3c2)c2nc(C)c(C(=O)N[C@H](CO)CC(C)C)n2c1 [Compound 351] | – | – | 1.07 to 11.5
28 | CC(C)C[C@@H](CO)NC(=O)c1c(-c2cccnc2)nc2c(C(=O)NCc3ccc4nc(N)sc4c3)cccn12 [Compound 405] | 0.006 to 0.1 µM | – | –
29 | CCc1nc2c(C(=O)NCc3cnn(-c4ccc(C)cc4)c3)cccn2c1C(=O)O [Compound 445] | 0.006 to 0.1 µM | – | –
30 | CC(C)C[C@@H](CO)NC(=O)c1c(-c2ccc(Cl)cc2)nc2c(C(=O)NCc3ccc4nc(N)sc4c3)cccn12 [Compound 453] | 0.006 to 0.1 µM | – | –
31 | CCc1nc2c(C(=O)NCc3ccc(S(C)(=O)=O)cc3)cccn2c1C(=O)N[C@H](CO)CC(C)C [Compound 457] | 0.006 to 0.1 µM | – | –
32 | CCc1nc2c(C(=O)NCc3ccc4[nH]ncc4c3)cccn2c1C(=O)N[C@H](CO)CC(C)C [Compound 471] | 0.006 to 0.1 µM | – | –
33 | CCc1nc2c(C(=O)NCc3cnn(-c4ccc(S(C)(=O)=O)cc4)c3)cccn2c1C(=O)N[C@H](CO)CC(C)C [Compound 472] | 0.006 to 0.1 µM | – | –
34 | CC(C)C[C@@H](CO)NC(=O)c1c(-c2ccccn2)nc2c(C(=O)NCc3ccn(-c4ccccc4)n3)cccn12 [Compound 477] | 0.006 to 0.1 µM | – | –
35 | Cc1nc2ccc(CNC(=O)c3cccn4c(C(=O)NC(C)C)c(-c5ccccn5)nc34)cc2[nH]1 [Compound 480] | 0.006 to 0.1 µM | – | –
36 | CC(C)C[C@@H](CO)NC(=O)c1c(-c2ccccn2)nc2c(C(=O)NCc3cnc4nc(N)sc4c3)cccn12 [Compound 481] | 0.006 to 0.1 µM | – | –
37 | CC(C)C[C@@H](CO)NC(=O)c1c(-c2ccccn2)nc2c(C(=O)NCc3cnn(-c4cccc(C(F)(F)F)c4)c3)cccn12 [Compound 484] | 0.006 to 0.1 µM | – | –
38 | CC(C)C[C@@H](CO)NC(=O)c1c(-c2ccccn2)nc2c(C(=O)NCc3ccc(N4CCCC4=O)cc3)cccn12 [Compound 485] | 0.006 to 0.1 µM and 0.006 to 0.02 µM | – | –
39 | CC(C)C[C@@H](CO)NC(=O)c1c(-c2ccccn2)nc2c(C(=O)NCc3ccc4occc4c3)cccn12 [Compound 489] | 0.006 to 0.1 µM | – | –
40 | Cc1cccc(-n2cc(CNC(=O)c3cccn4c(C(=O)N[C@H](CO)CC(C)C)c(-c5ccccn5)nc34)cn2)c1 [Compound 490] | 0.006 to 0.1 µM | – | –
41 | CC(C)C[C@@H](CO)NC(=O)c1c(-c2ccccn2)nc2c(C(=O)NCc3cnn(-c4ccc(S(C)(=O)=O)cc4)c3)cccn12 [Compound 491] | 0.006 to 0.1 µM and 0.006 to 0.02 µM | – | –
42 | CC(C)C[C@@H](CO)NC(=O)c1c(-c2ccccn2)nc2c(C(=O)NCc3ccc4[nH]ncc4c3)cccn12 [Compound 502] | 0.006 to 0.1 µM and 0.006 to 0.02 µM and 0.006 to 0.01 µM | – | –
43 | CC(C)C[C@@H](CO)NC(=O)c1cnc2c(C(=O)NCc3ccc4nc(N)sc4c3)cccn12 [Compound 543] | 0.006 to 0.1 µM | – | –
44 | CC(C)C[C@@H](CO)NC(=O)c1c(-c2ccccc2F)nc2c(C(=O)NCc3ccc4nc(N)sc4c3)cccn12 [Compound 545] | 0.006 to 0.1 µM | – | –
45 | COC[C@H](CC(C)C)NC(=O)c1c(-c2ccsc2)nc2c(C(=O)NCc3ccc4nc(N)sc4c3)cccn12 [Compound 593] | 0.006 to 0.1 µM | – | –
46 | Cc1nc2c(C(=O)NCc3ccc4nc(N)sc4c3)cccn2c1C(=O)N[C@H](CO)CC(C)C [Compound 598] | 0.006 to 0.1 µM and 0.006 to 0.02 µM | – | –
47 | CC(C)C[C@@H](CO)NC(=O)c1cnc2c(C(=O)NCc3cnn(-c4ccc(S(C)(=O)=O)cc4)c3)cccn12 [Compound 629] | 0.006 to 0.02 µM and 0.006 to 0.01 µM | – | –
48 | Cc1nc2ccc(-n3cc(CNC(=O)c4cccn5c(C(=O)N[C@H](CO)CC(C)C)cnc45)cn3)cc2n1C [Compound 647] | 0.006 to 0.1 µM and 0.006 to 0.02 µM | 0.016 | –
49 | CC(C)C[C@@H](CO)NC(=O)c1cnc2c(C(=O)NCc3cnn(-c4ccc(S(=O)(=O)N(C)C)cc4)c3)cccn12 [Compound 650] | 0.006 to 0.1 µM and 0.006 to 0.02 µM | – | –
50 | CC(C)CC(CO)NC(=O)c1cnc2c(C(=O)NCc3cnn(-c4ccc(S(=O)(=O)N(C)C)c(Cl)c4)c3)cccn12 (centres unmarked) [Compound 651] | 0.006 to 0.1 µM and 0.006 to 0.02 µM and 0.006 to 0.01 µM | 0.01 | –
51 | CC(C)C[C@@H](CO)NC(=O)c1cnc2c(C(=O)NCc3cnn(-c4ccc(S(=O)(=O)N(C)C)c(F)c4)c3)cccn12 [Compound 652] | 0.006 to 0.1 µM and 0.006 to 0.02 µM and 0.006 to 0.01 µM | 0.011 | –
52 | CC(C)C[C@@H](CO)NC(=O)c1c(-c2ccsc2)nc2c(NC(=O)Cc3ccc4c(c3)OCO4)cccn12 [Compound 664] | 0.006 to 0.1 µM | – | –
